Laboratory results from patent US11180518B2, “Phenyl-heterocycle-phenyl derivatives for use in the treatment or prevention of melanoma” (MAX-PLANCK-GESELLSCHAFT ZUR FÖRDERUNG DER WISSENSCHAFTEN …, priority 2017, dated 2021).

Tests used:
[1] = tested on: SK-MEL-5 melanoma cells; test: Cell morphology (phase-contrast); assay type: cell-based, human; conditions: increasing doses, serum-free medium; time- and dose-dependent
Excerpt: (§1) To assess the possible impact of anle138b as well as anle138c on the different melanoma cell lines, WM983-A, WM983-B and SK-MEL-5, we treated them with increasing doses of either compound, dissolved in dimethyl sulfoxide (DMSO), and added to serum-free culture medium. […] We also observed that treatment with anle138b caused a more rapid morphological change than anle138c. To determine whether the effect of the two anle compounds was related to the amount of α-synuclein produced by the cells, we compared the proliferation of the (VGP) WM983-A high-level and the (RGP/VGP) WM1158 low-level α-synuclein-producing melanoma cells over a period of 96 hr, with replenishment of each anle compound at 48 hr (FIGS. 8A and B).
(§2) 10 or 30 mM stock solutions of anle138b or anle138c were made in DMSO. Since anle138b as well as anle138c bind strongly to FBS, melanoma cells, plated for 24 hr in tissue-culture medium containing 10% FBS, were rinsed three times with serum-free medium prior to addition of anle138b, anle138c, or an equivalent volume of DMSO only in serum-free medium. Forty-eight hours later, the cell culture medium was removed, followed by addition of an equivalent dose of anle138b or anle138c, or DMSO only in serum-free culture medium. […] Proliferation of melanoma cells that had received DMSO only, or were treated with anle138b was determined by counting the cells with a hemocytometer.
(§3) Cell morphology. Phase-contrast or DIC images of the melanoma cells that had been treated for various times with anle138b or anle138c, or had received DMSO only were captured with a 10×NA 0.6 objective on a Zeiss Axiovert 100 microscope with a Hamamatsu Orca charge-coupled device (CCD) camera. At least four images, at random areas per culture dish, were recorded for each time point.

[2] = tested on: WM1158 melanoma cells; test: Cell morphology (phase-contrast); assay type: cell-based, human; conditions: 10 μM, up to 96 hr, replenishment at 48 hr
Excerpt: as §1, §2, §3

[3] = tested on: WM983-B melanoma cells; test: Cell morphology (phase-contrast); assay type: cell-based, human; conditions: increasing doses, serum-free medium; time- and dose-dependent
Excerpt: as §1, §2, §3

[4] = tested on: WM983-A melanoma cells; test: Melanoma cell proliferation analysis (hemocytometer counting); assay type: cell-based, human
Excerpt: as §1
(§4) To compare how rapidly anle138b affected the proliferation of melanoma cells, expressing α-synuclein at a high level, we treated the melanoma cell lines, WM983-A (VGP) and WM983-B (MGP), for 24, 48 or 72 hr with 10 μM of anle138b, with replenishment of the compound (10 μM) at 48 hr.
10 or 30 mM stock solutions of anle138b or anle138c were made in DMSO. […] Proliferation of melanoma cells that had received DMSO only, or were treated with anle138b was determined by counting the cells with a hemocytometer.

[5] = tested on: WM983-B melanoma cells; test: as above; assay type: cell-based, human; conditions: single dose of 10 μM, 24 hr
Protocol: as §4, §2

[6] = tested on: WM983-B melanoma cells; test: Autophagy: LC3 immunofluorescence; assay type: cell-based, human
Protocol: We observed a clear effect of the anle compounds on the autophagy pathway of the melanoma cells. […] Following addition of anle138c, the effect was seen later with levels of 8% at 24 hr and 78% after 96 hr.
Autophagy. WM983-B and SK-MEL-5 cells that for 24 or 48 hr were treated with anle138 or had received DMSO only were fixed for 20 min with 3.7% PFA, permeabilized, blocked, and probed with an anti-LC3B [clone 2G6] antibody (nanoTools Antikörpertechnik GmbH & Co. KG, Teningen, Germany), followed by a donkey anti-mouse Alexa-488 secondary antibody and Draq5 DNA counterstain. Confocal image stacks were obtained with a 63×NA 1.2 objective on a Zeiss LSM 510 Meta confocal microscope.

[7] = tested on: WM983-B melanoma cells; test: Immunoblot analysis of p62/SQSTM1 expression; assay type: cell-based, human; conditions: 7.5 μM
Protocol: For the analysis of p62/SQSTM1 protein expression, WM983-B melanoma whole-cell lysates were separated on 12% SDS-PAGE, transferred onto nitrocellulose membrane, blocked with 3% bovine serum albumin (BSA), probed with an anti-p62/SQSTM1 antibody (Cell Signaling Technology, Inc. Danvers, Mass., USA), followed by incubation with a corresponding HPR-conjugated secondary antibody and chemiluminescent substrate (EMD Millipore, Billerica, Mass., USA). Protein loading was determined by secondary probing with an anti-GAPDH antibody (Thermo Fisher Scientific Inc.).

[8] = tested on: WM983-A, WM983-B, and SK-MEL-5 melanoma cell lines; test: Apoptosis markers in treated melanoma cells; assay type: cell-based, human
Excerpt: Although the morphological changes in the WM983-A, WM983-B, and SK-MEL-5 melanoma cell lines following addition of anle138b occurred quite rapidly, they were not indicative of the cells undergoing apoptosis. […] Differential interference contrast (DIC) images of the morphology of the anle138b-treated WM983-B, SK-MEL-5, and WM1158 melanoma cells from the same panels are shown in FIG. 9.

[9] = Binding to FBS; assay type: in vitro ADME
[10] = tested on: autophagy markers, LC3 and p62/SQSTM1; conditions: mouse, in vivo; cited from earlier work

Brc1cccc(-c2cc(-c3ccc4c(c3)OCO4)n[nH]2)c1 [anle138b, 5-(3-Bromophenyl)-3-(3,4-methylenedioxyphenyl)-1H-pyrazole]
morphological changes [1]: major morphological changes
morphology [2]: did not show a significantly altered morphology
morphological changes [3]: major morphological changes
proliferation of residual cells after removal of compound ([4]; removal of compound-containing medium at 96 hr, then serum-free medium): not able to proliferate again
proliferation ([4]; single dose of 10 μM, 24 hr): inhibited the proliferation of both cell lines to a significant extent
proliferation [5]: inhibited the proliferation of both cell lines to a significant extent
cells with punctuate upregulation of LC3 ([6]; 24 hr, cells still attached): about 60%
cells with punctuate upregulation of LC3 ([6]; 48 hr, cells remaining on the dish): 95%
p62/SQSTM1 expression ([7]; 48 and 72 hr, replenishment at 48 hr, vs DMSO only): noticeably elevated
p62/SQSTM1 expression ([7]; 24 hr): did not lead to an increase
cleaved caspase 3 (apoptosis) [8]: nor were they positive for cleaved caspase 3
binding to FBS [9]: bind strongly
level of the autophagy markers, LC3 and p62/SQSTM1 [10]: did not change
